Laboratory results taken from patent publication US20260125382A1, “COMPOUNDS FOR INHIBITING OR DEGRADING CDK2 AND/OR CDK9 AND MEDICINAL USE THEREOF” (KOREA RESEARCH INSTITUTE OF CHEMICAL TECHNOLOGY, priority 2022, published 2026).

What was measured:
CDK2 = molecular target: T1, CDK2 (Homo sapiens, UniProt P24941); experiment: CDK protein degradation activity (Western blotting), CDK2; type: cell-based; conditions: MDA-MB-231 cells, 16 hours, Western blot
T1 construct: endogenous in cells; host or cells: MDA-MB-231
Method in brief: (§1)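 Seed MDA-MB-231 cells; next day add compound to 100 nM, 1 μM or 10 μM final, or DMSO. After 16 h, harvest and lyse in Triton X-100 buffer, run SDS-PAGE, probe for CDK2, CDK9 and tubulin.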

CDK9 = molecular target: T2, CDK9 (Homo sapiens, UniProt P50750); experiment: CDK protein degradation activity (Western blotting), CDK9; type: cell-based; conditions: MDA-MB-231 cells, 16 hours, Western blot
T2 construct: endogenous in cells; host or cells: MDA-MB-231
T2 sequence (P50750 whole entry): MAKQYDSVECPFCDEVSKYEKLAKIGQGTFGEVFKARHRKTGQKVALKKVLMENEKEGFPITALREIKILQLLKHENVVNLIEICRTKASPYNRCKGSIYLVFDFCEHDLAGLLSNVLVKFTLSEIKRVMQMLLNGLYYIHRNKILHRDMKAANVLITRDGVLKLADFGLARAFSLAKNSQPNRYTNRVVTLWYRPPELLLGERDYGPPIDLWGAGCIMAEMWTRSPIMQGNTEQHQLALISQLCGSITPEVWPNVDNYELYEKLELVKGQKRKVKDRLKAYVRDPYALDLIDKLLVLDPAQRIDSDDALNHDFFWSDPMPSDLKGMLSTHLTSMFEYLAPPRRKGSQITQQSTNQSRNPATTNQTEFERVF
Method in brief: as §1

| SMILES | Enzyme degradation CDK2 (% remaining) @ 0.1 μM (CDK2) | Enzyme degradation CDK2 (% remaining) @ 1 μM (CDK2) | Enzyme degradation CDK2 (% remaining) @ 10 μM (CDK2) | Enzyme degradation CDK9 (% remaining) @ 0.1 μM (CDK9) | Enzyme degradation CDK9 (% remaining) @ 1 μM (CDK9) | Enzyme degradation CDK9 (% remaining) @ 10 μM (CDK9) |
| --- | --- | --- | --- | --- | --- | --- |
| Cc1cccc(C(=O)NC2CC(n3cnc4c(Nc5ccc(N6CCN(CC7CCN(c8cccc9c8C(=O)N([C@H]8CCC(=O)NC8=O)C9=O)CC7)CC6)cc5)ncnc43)C2)n1 (stereo partly drawn) [Compound 89, N-((1s,3s)-3-(6-((4-(4-((1-(2-(2,6-dioxopiperidin-3-yl)-1,3-dioxoisoindolin-4-yl)piperidin-4-yl)methyl)piperazin-1-yl)phenyl)amino)-9H-purin-9-yl)cyclobutyl)-6-methylpicolinamide] | 70% | 50% | 90% | 10% | 0% | 0% |
| Cc1cccc(C(=O)NC2CC(n3cnc4c(Nc5ccc(N6CCN(CC7CCN(C(=O)C8CCN(c9ccc%10c(c9)C(=O)N([C@H]9CCC(=O)NC9=O)C%10=O)CC8)CC7)CC6)cc5)ncnc43)C2)n1 (stereo partly drawn) [Compound 379, N-((1s,3s)-3-(6-((4-(4-((1-(1-(2-(2,6-dioxopiperidin-3-yl)-1,3-dioxoisoindolin-5-yl)piperidin-4-carbonyl)piperidin-4-yl)methyl)piperazin-1-yl)phenyl)amino)-9H-purin-9-yl)cyclobutyl)-6-methylpicolinamide] | 40/40/40% | 40/40/40% | 40/40/40% | 0/0/0% | 0/0/0% | 0/0/0% |
| Cc1cccc(C(=O)NC2CC(n3cnc4c(NCCC5CCN(CC6CCN(CC7CN(c8ccc9c(c8)C(=O)N([C@H]8CCC(=O)NC8=O)C9=O)C7)CC6)CC5)ncnc43)C2)n1 (stereo partly drawn) [Compound 402, N-((1s,3s)-3-(6-((2-(1-((1-((1-(2-(2,6-dioxopiperidin-3-yl)-1,3-dioxoisoindolin-5-yl)azetidin-3-yl)methyl)piperidin-4-yl)methyl)piperidin-4-yl)ethyl)amino)-9H-purin-9-yl)cyclobutyl)-6-methylpicolinamide] | 70% | 50% | 50% | 0/0/0% | 0/0/0% | 0/0/0% |
| O=C1CC[C@H](n2nnc3ccc(N4CCC(CN5CCN(c6ccc(Nc7ncnc8c7ncn8[C@H]7C[C@@H](NC(=O)c8cccc(C(F)(F)F)n8)C7)cc6)CC5)CC4)cc3c2=O)C(=O)N1 [Compound 424, N-((1s,3s)-3-(6-((4-(4-((1-(3-(2,6-dioxopiperidin-3-yl)-4-oxo-3,4-dihydrobenzo[d][1,2,3]triazin-6-yl)piperidin-4-yl)methyl)piperazin-1-yl)phenyl)amino)-9H-purin-9-yl)cyclobutyl)-6-(trifluoromethyl)picolinamide] | 10/10/10% | 10/10/10% | 10/10/10% | 0/0/0% | 0/0/0% | 0/0/0% |
| Cc1cccc(C(=O)NC2CC(n3cnc4c(NC5CCN(CCOC6CCN(C(=O)CNc7cccc8c7C(=O)N([C@H]7CCC(=O)NC7=O)C8=O)CC6)CC5)ncnc43)C2)n1 (stereo partly drawn) [Compound 46, N-((1s,3s)-3-(6-((1-(2-((1-((2-(2,6-dioxopiperidin-3-yl)-1,3-dioxoisoindolin-4-yl)glycyl)piperidin-4-yl)oxy)ethyl)piperidin-4-yl)amino)-9H-purin-9-yl)cyclobutyl)-6-methylpicolinamide] | 80% | 90% | 100% | 20% | 10% | 30% |
| O=C1CC[C@H](N2C(=O)c3ccc(N4CC(C(=O)N5CCC(CN6CCN(c7ccc(Nc8ncnc9c8ncn9[C@H]8C[C@@H](NC(=O)c9c(Cl)cccc9Cl)C8)cc7)CC6)CC5)C4)cc3C2=O)C(=O)N1 [Compound 394, 2,6-dichloro-N-((1s,3s)-3-(6-((4-(4-((1-(1-(2-(2,6-dioxopiperidin-3-yl)-1,3-dioxoisoindolin-5-yl)azetidin-3-carbonyl)piperidin-4-yl)methyl)piperazin-1-yl)phenyl)amino)-9H-purin-9-yl)cyclobutyl)benzamide] | 20/20/20% | 20/20/20% | 20/20/20% | 0/0/0% | 0/0/0% | 0/0/0% |
| Cc1cccc(C(=O)NC2CC(n3cnc4c(Nc5ccc(N6CCN(CC7CCN(C(=O)CNc8ccc9c(c8)C(=O)N([C@H]8CCC(=O)NC8=O)C9=O)CC7)CC6)cc5)ncnc43)C2)n1 (stereo partly drawn) [Compound 92, N-((1s,3s)-3-(6-((4-(4-((1-((2-(2,6-dioxopiperidin-3-yl)-1,3-dioxoisoindolin-5-yl)glycyl)piperidin-4-yl)methyl)piperazin-1-yl)phenyl)amino)-9H-purin-9-yl)cyclobutyl)-6-methylpicolinamide] | 40% | 20% | 20% | 10% | 0% | 0% |
| Cc1cccc(C(=O)N[C@H]2C[C@@H](n3cnc4c(Nc5ccc(N6CCN(CC7CCN(c8cc9c(cc8F)C(=O)N([C@H]8CCC(=O)NC8=O)C9=O)CC7)CC6)cc5)ncnc43)C2)n1 [Compound 377, N-((1s,3s)-3-(6-((4-(4-((1-(2-(2,6-dioxopiperidin-3-yl)-6-fluoro-1,3-dioxoisoindolin-5-yl)piperidin-4-yl)methyl)piperazin-1-yl)phenyl)amino)-9H-purin-9-yl)cyclobutyl)-6-methylpicolinamide] | 20% | 10% | 10% | 0/0/0% | 0/0/0% | 0/0/0% |
| O=C1CC[C@H](N2C(=O)c3cc(F)c(N4CCC(CN5CCN(c6ccc(Nc7ncnc8c7ncn8C7CC(NC(=O)c8cccc(C(F)(F)F)n8)C7)cc6)CC5)CC4)cc3C2=O)C(=O)N1 (stereo partly drawn) [Compound 415, N-((1s,3s)-3-(6-((4-(4-((1-(2-(2,6-dioxopiperidin-3-yl)-6-fluoro-1,3-dioxoisoindolin-5-yl)piperidin-4-yl)methyl)piperazin-1-yl)phenyl)amino)-9H-purin-9-yl)cyclobutyl)-6-(trifluoromethyl)picolinamide] | 20/20/20% | 20/20/20% | 20/20/20% | 10/10/10% | 10/10/10% | 10/10/10% |
| Cc1cccc(C(=O)N[C@H]2C[C@@H](n3cnc4c(NC5CCN(CCC6CCN(C(=O)CNc7cccc8c7C(=O)N(C7CCC(=O)NC7=O)C8=O)CC6)CC5)ncnc43)C2)n1 (stereo partly drawn) [Compound 34, N-((1s,3s)-3-(6-((1-(2-(1-((2-(2,6-dioxopiperidin-3-yl)-1,3-dioxoisoindolin-4-yl)glycyl)piperidin-4-yl)ethyl)piperidin-4-yl)amino)-9H-purin-9-yl)cyclobutyl)-6-methylpicolinamide] | 50% | 50% | 100% | 0% | 0% | 10% |
| O=C1CC[C@H](N2C(=O)c3ccc(OCC(=O)N4CCN(CCCN5CCN(c6ccc(Nc7ncnc8c7ncn8[C@H]7C[C@@H](NC(=O)Cc8ccccc8)C7)cc6)CC5)CC4)cc3C2=O)C(=O)N1 [Compound 234, N-((1s,3s)-3-(6-((4-(4-(3-(4-(2-((2-(2,6-dioxopiperidin-3-yl)-1,3-dioxoisoindolin-5-yl)oxy)acetyl)piperazin-1-yl)propyl)piperazin-1-yl)phenyl)amino)-9H-purin-9-yl)cyclobutyl)-2-phenylacetamide] | 100% | 80% | 70% | 60% | 40% | 0% |
